The values that follow come from ChEMBL document CHEMBL1157992, “Alvaradoins A-D. Anthracenone C arabinosides from alvaradoa jamaicensis” (J Nat Prod, 1999).

Active and inactive are the calls of the source. The calls are words filed in the database; no cut-off is given here.

The test system of this assay is Mycobacterium tuberculosis. In words: Antituberculosis activity against Mycobacterium tuberculosis at 12.5 ug/mL. The assay is classed as functional, organism-based.
With `COc1cc(O)c2c(c1)C(=O)c1cc(C)cc(O)c1C2=O`, the outcome was inactive.

With `COc1cc(O)c2c(c1)[C@](O)([C@H]1OC[C@H](OC(C)=O)[C@H](OC(=O)C=C(C)C)[C@H]1O)c1cc(C)cc(O)c1C2=O`, the outcome was inactive.

Turning to `COc1cc(O)c2c(c1)[C@H]([C@H]1OC[C@H](OC(C)=O)[C@H](OC(=O)C=C(C)C)[C@H]1O)c1cc(C)cc(O)c1C2=O`, the result was inactive.

With `Cc1cc(O)c2c(c1)C(=O)c1cccc(O)c1C2=O`, the outcome was inactive. In the case of `COc1cc(O)c2c(c1)[C@@H]([C@H]1OC[C@H](OC(C)=O)[C@H](OC(=O)C=C(C)C)[C@H]1O)c1cc(C)cc(O)c1C2=O`, the outcome was inactive. With `COc1cc(O)c2c(c1)[C@@](O)([C@H]1OC[C@H](OC(C)=O)[C@H](OC(=O)C=C(C)C)[C@H]1O)c1cc(C)cc(O)c1C2=O`, the result was inactive.
